Source: BindingDB's records for doi:10.1111/cbdd.12342 (Zhejiang University, 2014)

Target: T1, Proteasome subunit beta type-5 (Homo sapiens, UniProt P28074)
T1 sequence (P28074 whole entry): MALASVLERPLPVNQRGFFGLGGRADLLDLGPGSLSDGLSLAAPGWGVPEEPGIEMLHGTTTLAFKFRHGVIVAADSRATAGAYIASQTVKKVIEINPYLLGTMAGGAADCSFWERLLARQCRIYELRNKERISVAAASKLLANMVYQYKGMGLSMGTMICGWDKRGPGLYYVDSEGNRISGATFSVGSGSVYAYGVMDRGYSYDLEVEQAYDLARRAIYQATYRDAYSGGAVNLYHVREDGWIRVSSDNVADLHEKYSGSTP
Test: 20S proteasome chymotrypsin-like inhibition assay

IC50 | SMILES
1010 nM | COc1ccc(C(=O)NC(CC(=O)N[C@@H](CC(C)C)C(=O)N[C@@H](CC(C)C)C(=O)[C@@]2(C)CO2)c2ccccc2)cc1 (some centres undefined) [4-Methoxy-N-{3-{S-4-methyl-1-[S-4-methyl-1-(R-2-methyloxiran-2-yl)-1-oxopentan-2-ylamino]-1-oxopentan-2-ylamino}-3-oxo-1-phenylpropyl} benzamide (21e)]
1420 nM | CC(C)C[C@H](NC(=O)CC(NC(=O)c1ccccc1)c1ccccc1)C(=O)N[C@@H](CC(C)C)C(=O)[C@@]1(C)CO1 (some centres undefined) [N-{3-{S-4-Methyl-1-[S-4-methyl-1-(R-2-methyloxiran-2-yl)-1-oxopentan-2-ylamino]-1-oxopentan-2-ylamino}-3-oxo-1-phenylpropyl} benzamide (21c)]
1850 nM | CC(C)C[C@H](NC(=O)CC(NC(=O)c1cccnc1)c1ccccc1)C(=O)N[C@@H](CC(C)C)C(=O)[C@@]1(C)CO1 (some centres undefined) [N-{3-{S-4-Methyl-1-[S-4-methyl-1-(R-2-methyloxiran-2-yl)-1-oxopentan-2-ylamino]-1-oxopentan-2-ylamino}-3-oxo-1-phenylpropyl} nicotinamide (21b)]
970 nM | CC(C)C[C@H](NC(=O)CC(NC(=O)c1ccc(F)cc1)c1ccccc1)C(=O)N[C@@H](CC(C)C)C(=O)[C@@]1(C)CO1 (some centres undefined) [4-Fluoro-N-{3-{S-4-methyl-1-[S-4-methyl-1-(R-2-methyloxiran-2-yl)-1-oxopentan-2-ylamino]-1-oxopentan-2-ylamino}-3-oxo-1-phenylpropyl} benzamide (21d)]
